Experimental data published in patent US8580920B2, “Peptides useful for skin lightening” (Conopco, Inc., priority 2009, dated 2013).
Read-outs that look alike come from different tables or passages of the source. Bridges are numbered along the chain shown (N, C = ends).

Test system: human epidermal keratinocytes neonatal (HeKn) and human epidermal melanocytes neonatal darkly pigmented (HeMnDP) co-culture
Details: 72 hours, with respect to untreated control
Experimental: The ability of various materials to act as skin lightening agents was measured using the melanin content assay. The experiments were carried out as per the following procedure:
A 2:1 ratio mix containing 100 000 human epidermal keratinocytes neonatal (HeKn) (neonatal foreskin keratinocytes from Cascade Biologicals) and 50 000 human epidermal melanocytes neonatal darkly pigmented (HeMnDP) (darkly pigmenting cells neonatal foreskin melanocytes from Cascade Biologicals) were seeded per well, in a 24 well cell culture plate, to establish a co-culture system. After overnight incubation, cells were treated with fresh media containing the test actives (untreated or vehicle controls set up in parallel) and incubated for 72 hours after treatment. Then media was removed and replaced with 80 μl of dimethyl sulphoxide (DMSO). The plate was further incubated with DMSO for 1 hour at 65° C., after which the well contents were triturated and the same sample used to assay both for melanin content (read at 450 nm in a plate reader) and protein estimation (regular BiCinchoninic Acid method, kit from Peirce). % reduction in melanin was with respect to untreated control.

O=c1cc(CO)occ1O [Kojic acid, reference compound] was tested, and the “% REDUCTION IN MELANIN CONTENT” value (100 μM) was 19 (±1) %.

“-Gly-Cys-His-Gly-His-Pro-Phe-Ala-Pro-Cys-Ala- [Peptide 2] (H-GCHGHPFAPCA-OH; disulfide 2-10; N-terminus and C-terminus assumed; SMILES C[C@H](NC(=O)[C@@H]1CSSC[C@H](NC(=O)CN)C(=O)N[C@@H](Cc2c[nH]cn2)C(=O)NCC(=O)N[C@@H](Cc2c[nH]cn2)C(=O)N2CCC[C@H]2C(=O)N[C@@H](Cc2ccccc2)C(=O)N[C@@H](C)C(=O)N2CCC[C@H]2C(=O)N1)C(=O)O)” was tested, and the “% REDUCTION IN MELANIN CONTENT” value (46 μM) was 12 (±10) %.

For “-Gly-Cys-Leu-Ser-Arg-His-Val-Leu-Gln-Cys-Ala- [Peptide 1]”, the “% REDUCTION IN MELANIN CONTENT” value (42 μM) was 5 (±2) % and the “% REDUCTION IN MELANIN CONTENT” value (420 μM) was 22 (±3) %.
